Common to all, as to format: cell-based, human
For test [1], the system named is hedgehog signaling (GLI3, GLI1) in control hPSC kidney organoid cultures. In words: GLI3 and GLI1 immunoblots of kidney organoid cultures from control hPSCs treated with hedgehog modulators. As to the method:
(§1) KIF3A^−/−, KIF3B^−/− and isogenic control hPSCs were lysed with RIPA buffer containing protease and phosphatase inhibitors (Roche). Protein concentration was determined using a Pierce BCA protein assay kit. 50 μg of total protein was separated in a 4-20% acrylamide gel (Bio-Rad) and analyzed with silver stain (Bio-Rad) or transferred onto a PDVF membrane using standard procedures. 5% milk was used as a blocking agent prior to and during immunoblotting. Blots were probed with antibodies raised against PC1 (Santa Cruz sc-130554), PC2 (Santa Cruz sc-25749), KIF3A (Abcam ab11259), KIF3B (Cell Signaling 13817), […] (Cell Signaling 4970), FLOT1 (Cell Signaling 18634), IFT88 (Proteintech 13967-1-AP), ARL13B (Proteintech 17711-1-AP), GLI1 (Cell Signaling 3538), GLI2 (Abcam ab26056), PTCH1 (Cell Signaling 8358), ALIX (Cell Signaling 2171), ANXA5 (Cell Signaling 8555), GM130 (Cell Signaling 12480), HPS70 (Cell Signaling 4876), CD9 (Cell Signaling 13174), ICAM-1 (Cell Signaling 4915), and EpCAM (Cell Signaling 2626).
(§2) Kidney organoids were generated as previously described (Freedman, B. S. et al. Modelling kidney disease with CRISPR-mutant kidney organoids derived from human pluripotent epiblast spheroids. Nat Commun 6, 8715 (2015)). Briefly, dissociated hPSCs were plated into 96 or 24 well plates coated with 1% Geltrex (Thermo Fisher) in mTeSR1 (STEMCELL Technologies) supplemented with 10 μM Rho-kinase inhibitor Y27632 (Tocris Bioscience). The next morning, mTeSR1 containing 1.5% Geltrex was added to the wells, and the media was changed again to mTeSR1 24 hours later. 72 hours after plating, cells were treated with 12 μM CHIR99021 (Stemgent) in RPMI medium containing 1× Glutamax (Thermo Fisher) with 2 ng/ml recombinant BMP-4 (Peprotech) to induce kidney differentiation. 36 hours after treatment, the medium was changed to RPMI supplemented with B27 (RB medium, Thermo Fisher). RB medium changes were performed every three days. When indicated, organoid cultures were supplemented with 1 μM SAG or 10 μM Cyclopamine (both from Cayman Chemical) starting with the first addition of RB on day 1.5 (36 hours after CHIR99021 treatment on day 0) and maintained thereafter in RB media containing these compounds at all subsequent time points.
Fluorescence intensity analysis of BRY and OCT4 was performed on images processed and imaged identically, individual cells were identified automatically using Cell Profiler 2.0 and the average intensity per cell was plotted in BBP. Line scan analyses were conducted utilizing the Intensity Profile function in NIS Elements. A single line scan of equal length was performed on each structure, and subsequently these were averaged to generate the graphs, plotting pixel intensity values for each channel on the y-axis against the points along the line on the x-axis. Immunoblot band intensity levels were quantified using the ImageJ magic wand tool, normalized to the loading control, and pooled from multiple experiments to determine average and S.E.M. values. A two-tailed t-test for two samples with unequal variance was applied to determine significance. In cases where a treatment condition was applied, a paired t-test was performed. Statistical analyses were performed in GraphPad Prism 9 software.

Test [2] has as its system hedgehog signaling (GLI3, GLI1) in KIF3A−/− and KIF3B−/− mutants. In words: GLI3 and GLI1 immunoblots of KIF3A−/− and KIF3B−/− kidney organoid cultures treated with hedgehog modulators. The conditions noted are these: for GLI3/GLI1 response to prolonged treatment: day 18, 1 μM SAG or 10 μM cyclopamine starting on day 1.5. As to the method: as §1
Kidney organoids were generated as previously described (Freedman, B. S. et al. Modelling kidney disease with CRISPR-mutant kidney organoids derived from human pluripotent epiblast spheroids. Nat Commun 6, 8715 (2015)). Briefly, dissociated hPSCs were plated into 96 or 24 well plates coated with 1% Geltrex (Thermo Fisher) in mTeSR1 (STEMCELL Technologies) supplemented with 10 μM Rho-kinase inhibitor Y27632 (Tocris Bioscience). The next morning, mTeSR1 containing 1.5% Geltrex was added to the wells, and the media was changed again to mTeSR1 24 hours later. […]
(§3) Fluorescence intensity analysis of BRY and OCT4 was performed on images processed and imaged identically, individual cells were identified automatically using Cell Profiler 2.0 and the average intensity per cell was plotted in BBP. […] Immunoblot band intensity levels were quantified using the ImageJ magic wand tool, normalized to the loading control, and pooled from multiple experiments to determine average and S.E.M. values. […]

Test [3] has as its system kidney organoid cultures derived from control hPSCs. Put plainly: Organoid lineage differentiation in control cultures (immunofluorescence, 96-wells). Particulars: 1 μM SAG or 10 μM cyclopamine from day 1.5 to day 18. As to the method: as §2
(§4) Cells and organoid cultures were fixed with 4% paraformaldehyde (Electron Microscopy Sciences) for 15 minutes, washed 3 times with Phosphate buffered saline (PBS, Thermo Fisher), blocked for 1 hour with blocking buffer (5% normal donkey serum and 0.3% Triton X-100 in PBS), and incubated overnight with primary antibodies including mouse acetylated α-tubulin (Sigma T7451), rabbit acetylated α-tubulin (Cell Signaling, D20G3), α-fetoprotein (AFP) (R&D MAB1368), α-smooth muscle actin (SMA) (R&D MAB1420), ZO-1 (Invitrogen, 339100), E-Cadherin (Abcam, ab11512), Nephrin (R&D, AF4269), p-Histone H3 (Santa Cruz sc-8656-R), OCT4 (Abcam ab19857), brachyury (BRY) (Santa Cruz sc-17745), SOX2 (Abcam ab97959), and 3-Tubulin III (Tuj1) (Sigma-Aldrich T2200-200UL). After washing with PBS, secondary donkey antibodies conjugated with Alexa-Fluor 488, 555, or 647 (1:500, Thermo Fisher) were applied, or Fluorescein Lotus Lectin (Vector Labs, FL-1321), with DAPI to stain the nuclei. Stained cells were imaged in PBS using a Nikon AIR confocal microscope or Eclipse TE wide-field microscope.

In a further test the test system is hPSCs. In words: OCT4 and BRY immunofluorescence in hPSCs after CHIR99021. Particulars: increasing doses of CHIR99021 in mTeSR1 for 48 hours; kinesin-2 knockout hPSCs, no significant difference from controls. As to the method:
as §4, with “Stained cells were imaged in PBS using a Nikon AIR confocal microscope or Eclipse TE wide-field microscope.” left out
as §3

The next test has as its system GLI1 in EV of hPSCs. Put plainly: GLI1 immunoblot of extracellular vesicles (EV) from hPSCs ±SAG. The conditions noted are these: SAG stimulation. As to the method:
KIF3A^−/−, KIF3B^−/− and isogenic control hPSCs were lysed with RIPA buffer containing protease and phosphatase inhibitors (Roche). Protein concentration was determined using a Pierce BCA protein assay kit. 50 μg of total protein was separated in a 4-20% acrylamide gel (Bio-Rad) and analyzed with silver stain (Bio-Rad) or transferred onto a PDVF membrane using standard procedures. 5% milk was used as a blocking agent prior to and during immunoblotting. […]
as §3

Where [4] appears, read: 1 μM SAG starting on day 1.5, by day 4 of differentiation.
[5] abbreviates: day 18, prolonged 16.5 day treatment, 1 μM SAG.

Take `CC1=C2C[C@H]3[C@@H](CC=C4C[C@@H](O)CC[C@@]43C)[C@@H]2CC[C@]12O[C@@H]1C[C@H](C)CN[C@H]1[C@H]2C` [cyclopamine]: in test [1] (day 18, 10 μM cyclopamine starting on day 1.5), the GLI3R result is “modestly increased”. Moreover, in test [2], the “GLI3/GLI1 response to prolonged treatment” value is recorded as “failed to respond”. In test [3], the “Neuron differentiation (TUJ1+)” value is reported as “did not reach statistical significance” and the “SOX2+ neuronal progenitor cells” value is on record as “strong inhibitory effect”.

With `Cc1c[nH]c(-c2cnc(NCCNc3ccc(C#N)cn3)nc2-c2ccc(Cl)cc2Cl)n1` [CHIR99021], the “brachyury (BRY) immunofluorescence” value in the test with hPSCs was “dose-dependent upregulation”.

Consider `CNC1CCC(N(Cc2cccc(-c3ccncc3)c2)C(=O)c2sc3ccccc3c2Cl)CC1` (stereo not shown) [SAG], for which, in test [1] (setting [4]), the GLI1 levels entry is given as “increased levels” and the GLI3R levels result is “reduced levels”. Further, in test [1] (setting [5]), the GLI1 result is given as “upregulated” and the GLI3 result is “strongly downregulated”. Further, in test [2] (1 μM SAG starting on day 1.5), the “effect on GLI3 or GLI1 levels” value is listed as “no detectable effect”. In addition, in test [2], the “GLI3/GLI1 response to prolonged treatment” value is reported as “failed to respond”. In test [3], the “Kidney organoid differentiation (nephron organoids per well)” value was “impaired”, the “Neuron differentiation (TUJ1+)” value is reported as “significantly suppressed” and the “SOX2+ neuronal progenitor cells” value is “increased”. Further, the “GLI1 in EV” value in the test on GLI1 in EV of hPSCs (control or PKD1−/− hPSCs) is recorded as “increased after SAG stimulation”. Moreover, in the test on GLI1 in EV of hPSCs (kinesin-2 knockouts), the “GLI1 in EV” value is “undetectable”.

Values taken from patent US20250027932A1, “DIFFERENTIATION OF HUMAN TISSUES WITHOUT CILIA FROM PLURIPOTENT STEM CELLS” (University of Washington, priority 2021, published 2025).
